Test results published in publication PMC5218480 (PLoS ONE, 2017).

Tested on: MV-4-11 cells
Experiment: Gene expression microarray analysis (Affymetrix PrimeView) and GSEA
Type: cell-based, human
Design: RFU PODN (11730768_x_at) / Fold change /veh PODN (11730768_x_at) / RFU LINC00158 (11744669_a_at) / Fold change /veh LINC00158 (11744669_a_at) / RFU DUSP10 (11751237_a_at) / Fold change /veh DUSP10 (11751237_a_at) / RFU ID3 (11757404_x_at) / Fold change /veh ID3 (11757404_x_at) / RFU PLEKHG5 (11737974_s_at) / Fold change /veh PLEKHG5 (11737974_s_at) / RFU LRRC4B (11730491_at) / Fold change /veh LRRC4B (11730491_at) / RFU GIMAP4 (11747438_a_at) / Fold change /veh GIMAP4 (11747438_a_at) / RFU KRT8 (11758183_x_at) / Fold change /veh KRT8 (11758183_x_at) / RFU CNN1 (11734310_a_at) / Fold change /veh CNN1 (11734310_a_at) / RFU VPS37D (11726825_at) / Fold change /veh VPS37D (11726825_at) / RFU C10orf10 (11716522_x_at) / Fold change /veh C10orf10 (11716522_x_at) / RFU KIR2DL2 /// KIR2DL4 /// KIR2DL5A /// KIR2DL5B /// KIR2DS1 /// KIR2DS2 /// KIR2DS3 /// KIR2DS4 /// KIR3DL3 /// KIR3DL3 /// KIR3DS1 (11738374_at) / Fold change /veh KIR2DL2 /// KIR2DL4 /// KIR2DL5A /// KIR2DL5B /// KIR2DS1 /// KIR2DS2 /// KIR2DS3 /// KIR2DS4 /// KIR3DL3 /// KIR3DL3 /// KIR3DS1 (11738374_at) / RFU C1QL1 (11718748_at) / Fold change /veh C1QL1 (11718748_at) / RFU TMPRSS4 (11747572_a_at) / Fold change /veh TMPRSS4 (11747572_a_at) / RFU HAMP (11756126_x_at) / Fold change /veh HAMP (11756126_x_at) / RFU RNFT2 (11725882_a_at) / Fold change /veh RNFT2 (11725882_a_at) / RFU NR4A2 (11747474_a_at) / Fold change /veh NR4A2 (11747474_a_at) / RFU ABCC12 (11746883_a_at) / Fold change /veh ABCC12 (11746883_a_at) / RFU TMEM136 (11760407_x_at) / Fold change /veh TMEM136 (11760407_x_at) / RFU CLDN22 /// WWC2 (11732394_at) / Fold change /veh CLDN22 /// WWC2 (11732394_at) / RFU HLA-DPB1 (11760878_x_at) / Fold change /veh HLA-DPB1 (11760878_x_at) / RFU SPINT1 (11716480_a_at) / Fold change /veh SPINT1 (11716480_a_at) / RFU GAP43 (11754022_s_at) / Fold change /veh GAP43 (11754022_s_at) / RFU A4GNT (11735810_at) / Fold change /veh A4GNT (11735810_at) / RFU PRB3 (11715151_x_at) / Fold change /veh PRB3 (11715151_x_at) / RFU TUBB4B (11761932_at) / Fold change /veh TUBB4B (11761932_at) / RFU CAPN14 (11732068_a_at) / Fold change /veh CAPN14 (11732068_a_at) / RFU TMCC2 (11721928_a_at) / Fold change /veh TMCC2 (11721928_a_at) / RFU IRGQ (11745062_a_at) / Fold change /veh IRGQ (11745062_a_at) / RFU FAM174B (11720279_a_at) / Fold change /veh FAM174B (11720279_a_at) / RFU TMPRSS4 (11748680_a_at) / Fold change /veh TMPRSS4 (11748680_a_at) / RFU FAM212B (11763350_a_at) / Fold change /veh FAM212B (11763350_a_at) / RFU PLEKHG5 (11743358_a_at) / Fold change /veh PLEKHG5 (11743358_a_at) / RFU ZSCAN30 (11745921_a_at) / Fold change /veh ZSCAN30 (11745921_a_at) / RFU CMKLR1 (11741424_a_at) / Fold change /veh CMKLR1 (11741424_a_at) / RFU LOC101060620 /// MAPK8IP1 (11723275_at) / Fold change /veh LOC101060620 /// MAPK8IP1 (11723275_at) / RFU SPTSSB (11747773_x_at) / Fold change /veh SPTSSB (11747773_x_at) / RFU PRSS12 (11739890_at) / Fold change /veh PRSS12 (11739890_at) / RFU BIN1 (11741810_x_at) / Fold change /veh BIN1 (11741810_x_at) / RFU WNT11 (11732464_a_at) / Fold change /veh WNT11 (11732464_a_at) / RFU C10orf10 (11716521_a_at) / Fold change /veh C10orf10 (11716521_a_at) / RFU C5orf56 (11738089_at) / Fold change /veh C5orf56 (11738089_at) / RFU CYB561 (11721691_x_at) / Fold change /veh CYB561 (11721691_x_at) / RFU ANKRD19P (11752326_a_at) / Fold change /veh ANKRD19P (11752326_a_at) / RFU OR2T12 /// OR2T33 /// OR2T8 (11738714_s_at) / Fold change /veh OR2T12 /// OR2T33 /// OR2T8 (11738714_s_at) / RFU VCAN (11748164_a_at) / Fold change /veh VCAN (11748164_a_at) / RFU JSRP1 (11732532_at) / Fold change /veh JSRP1 (11732532_at) / RFU KRTAP10-11 (11738290_x_at) / Fold change /veh KRTAP10-11 (11738290_x_at) / RFU MYO3A (11730013_a_at) / Fold change /veh MYO3A (11730013_a_at) / RFU EBF3 (11725865_a_at) / Fold change /veh EBF3 (11725865_a_at) / RFU CAMK2N1 (11719241_x_at) / Fold change /veh CAMK2N1 (11719241_x_at) / RFU C5orf56 (11738088_a_at) / Fold change /veh C5orf56 (11738088_a_at) / RFU OLFML3 (11715873_a_at) / Fold change /veh OLFML3 (11715873_a_at) / RFU LOC100653217 /// NTM (11731650_a_at) / Fold change /veh LOC100653217 /// NTM (11731650_a_at) / RFU MAPK11 (11762145_a_at) / Fold change /veh MAPK11 (11762145_a_at) / RFU FIZ1 (11724087_x_at) / Fold change /veh FIZ1 (11724087_x_at) / RFU OASL (11726364_x_at) / Fold change /veh OASL (11726364_x_at) / RFU SOX15 (11748057_x_at) / Fold change /veh SOX15 (11748057_x_at) / RFU CD79A (11719716_a_at) / Fold change /veh CD79A (11719716_a_at) / RFU HIST1H1D (11736915_at) / Fold change /veh HIST1H1D (11736915_at) / RFU CASKIN2 (11723855_a_at) / Fold change /veh CASKIN2 (11723855_a_at) / RFU LOC730098 (11760151_x_at) / Fold change /veh LOC730098 (11760151_x_at) / RFU OR4N2 (11742367_at) / Fold change /veh OR4N2 (11742367_at) / RFU PRRT2 (11749266_a_at) / Fold change /veh PRRT2 (11749266_a_at) / RFU SNX32 (11753110_a_at) / Fold change /veh SNX32 (11753110_a_at) / RFU CDHR5 (11726645_a_at) / Fold change /veh CDHR5 (11726645_a_at) / RFU RCAN1 (11760418_a_at) / Fold change /veh RCAN1 (11760418_a_at) / RFU FAM167A (11723789_a_at) / Fold change /veh FAM167A (11723789_a_at) / RFU FAM26E (11764081_at) / Fold change /veh FAM26E (11764081_at) / RFU ISYNA1 (11749810_s_at) / Fold change /veh ISYNA1 (11749810_s_at) / RFU ACY1 (11761880_at) / Fold change /veh ACY1 (11761880_at) / RFU 11764098_at / Fold change /veh 11764098_at / RFU SAMD14 (11745864_x_at) / Fold change /veh SAMD14 (11745864_x_at) / RFU NPB (11741838_a_at) / Fold change /veh NPB (11741838_a_at) / RFU TMPRSS6 (11731388_a_at) / Fold change /veh TMPRSS6 (11731388_a_at) / RFU KRTAP10-2 (11738614_at) / Fold change /veh KRTAP10-2 (11738614_at) / RFU ARHGAP8 /// PRR5-ARHGAP8 (11727945_x_at) / Fold change /veh ARHGAP8 /// PRR5-ARHGAP8 (11727945_x_at) / RFU KRTAP5-7 /// NADSYN1 (11734609_at) / Fold change /veh KRTAP5-7 /// NADSYN1 (11734609_at) / RFU RASL12 (11751679_a_at) / Fold change /veh RASL12 (11751679_a_at) / RFU CDKN2B (11736163_a_at) / Fold change /veh CDKN2B (11736163_a_at) / RFU PRF1 (11729649_at) / Fold change /veh PRF1 (11729649_at) / RFU, ZNF638 /// ZNF638-IT1 / Fold change vs veh, ZNF638 /// ZNF638-IT1 / RFU, PANK3 / Fold change vs veh, PANK3 / RFU, SH3YL1 / Fold change vs veh, SH3YL1 / RFU, ZEB2 / Fold change vs veh, ZEB2 / RFU, NRIP1 / Fold change vs veh, NRIP1 / RFU, PTTG1IP / Fold change vs veh, PTTG1IP / RFU, CAPN2 / Fold change vs veh, CAPN2 / RFU, MED14 / Fold change vs veh, MED14 / RFU, SNORA58 / Fold change vs veh, SNORA58 / RFU, C1orf63 / Fold change vs veh, C1orf63 / RFU, LRRFIP1 / Fold change vs veh, LRRFIP1 / RFU, NDUFAF7 / Fold change vs veh, NDUFAF7 / RFU, SLC12A2 / Fold change vs veh, SLC12A2 / RFU, IBTK / Fold change vs veh, IBTK / RFU, ESF1 / Fold change vs veh, ESF1 / Fold change vs veh, TMEM50B / RFU, TAOK1 / Fold change vs veh, TAOK1 / RFU, ACBD3 / Fold change vs veh, ACBD3 / RFU, TMA16 / Fold change vs veh, TMA16 / RFU, RWDD3 / Fold change vs veh, RWDD3 / RFU, BCAT1 / Fold change vs veh, BCAT1 / RFU, EDEM3 / Fold change vs veh, EDEM3 / RFU, TMEM33 / Fold change vs veh, TMEM33 / RFU, WDR75 / Fold change vs veh, WDR75 / RFU, AHCTF1 / Fold change vs veh, AHCTF1 / RFU, TFRC / Fold change vs veh, TFRC / RFU, ZDHHC17 / Fold change vs veh, ZDHHC17 / RFU, NOM1 / Fold change vs veh, NOM1 / RFU, ARL8B / Fold change vs veh, ARL8B / RFU, ZBTB11 / Fold change vs veh, ZBTB11 / RFU, TAMM41 / Fold change vs veh, TAMM41 / RFU, KIAA1704 /// LOC100996395 / Fold change vs veh, KIAA1704 /// LOC100996395 / RFU, ING1 / Fold change vs veh, ING1 / RFU, TRMT61B / Fold change vs veh, TRMT61B / RFU, FUBP3 / Fold change vs veh, FUBP3 / RFU, TP53 / Fold change vs veh, TP53 / RFU, TNKS2 / Fold change vs veh, TNKS2 / RFU, ZFP14 / Fold change vs veh, ZFP14 / RFU, ACTR2 / Fold change vs veh, ACTR2 / RFU, PPP3R1 / Fold change vs veh, PPP3R1 / RFU, PIK3R1 / Fold change vs veh, PIK3R1 / RFU, HNRNPA1 / Fold change vs veh, HNRNPA1 / RFU, RNF170 / Fold change vs veh, RNF170 / RFU, ZNF28 / Fold change vs veh, ZNF28 / RFU, RNGTT / Fold change vs veh, RNGTT / RFU, OGT / Fold change vs veh, OGT / RFU, BRD1 / Fold change vs veh, BRD1 / RFU, MARS / Fold change vs veh, MARS / RFU, ZNF655 / Fold change vs veh, ZNF655 / RFU, FAHD1 / Fold change vs veh, FAHD1 / RFU, BDP1 / Fold change vs veh, BDP1 / RFU, LRRCC1 / Fold change vs veh, LRRCC1 / RFU, ARID1A / Fold change vs veh, ARID1A / RFU, ZNF146 / Fold change vs veh, ZNF146 / RFU, ZNF330 / Fold change vs veh, ZNF330 / RFU, GPN3 / Fold change vs veh, GPN3 / RFU, C9orf123 / Fold change vs veh, C9orf123 / RFU, N4BP2L2 / Fold change vs veh, N4BP2L2 / RFU, ARFIP1 / Fold change vs veh, ARFIP1 / RFU, FAM179B / Fold change vs veh, FAM179B / RFU, BCL10 / Fold change vs veh, BCL10 / RFU, UHRF1BP1L / Fold change vs veh, UHRF1BP1L / RFU, BET1 / Fold change vs veh, BET1 / RFU, CNOT2 / Fold change vs veh, CNOT2 / RFU, ZNF268 / Fold change vs veh, ZNF268 / Fold change vs veh, ZNF507 / RFU, DGCR2 / Fold change vs veh, DGCR2 / RFU, WDSUB1 / Fold change vs veh, WDSUB1 / Fold change vs veh, HSP90B1 /// MIR3652 / RFU, ADSS / Fold change vs veh, ADSS / RFU, GK / Fold change vs veh, GK / RFU, ZNF148 / Fold change vs veh, ZNF148 / RFU, TAF9 / Fold change vs veh, TAF9 / RFU, SLC1A5 / Fold change vs veh, SLC1A5 / RFU, SLMO2 / Fold change vs veh, SLMO2 / RFU, ABCC4 / Fold change vs veh, ABCC4 / RFU, LOC101060439 /// RAP1B / Fold change vs veh, LOC101060439 /// RAP1B / RFU, RFX7 / Fold change vs veh, RFX7 / RFU, GTPBP10 / Fold change vs veh, GTPBP10 / RFU, CNEP1R1 / Fold change vs veh, CNEP1R1 / RFU, BIVM-ERCC5 /// ERCC5 / Fold change vs veh, BIVM-ERCC5 /// ERCC5 / RFU, ILF3 / Fold change vs veh, ILF3 / RFU 11762660_at / Fold change /veh 11762660_at / RFU VCAN (11757783_s_at) / Fold change /veh VCAN (11757783_s_at) / RFU DDX43 (11728927_at) / Fold change /veh DDX43 (11728927_at) / RFU KRT8 (11758188_x_at) / Fold change /veh KRT8 (11758188_x_at) / RFU NKD1 (11759106_at) / Fold change /veh NKD1 (11759106_at) / RFU SRD5A1 (11742802_a_at) / Fold change /veh SRD5A1 (11742802_a_at) / RFU TPSAB1 /// TPSB2 (11721975_s_at) / Fold change /veh TPSAB1 /// TPSB2 (11721975_s_at) / RFU GSTM3 (11746129_a_at) / Fold change /veh GSTM3 (11746129_a_at) / RFU IL23R (11737362_x_at) / Fold change /veh IL23R (11737362_x_at) / RFU TMEM51 (11727254_a_at) / Fold change /veh TMEM51 (11727254_a_at) / RFU PIWIL2 (11732686_x_at) / Fold change /veh PIWIL2 (11732686_x_at) / RFU ORM1 (11744905_x_at) / Fold change /veh ORM1 (11744905_x_at) / RFU CCDC152 (11743942_at) / Fold change /veh CCDC152 (11743942_at) / RFU ECM1 (11717891_a_at) / Fold change /veh ECM1 (11717891_a_at) / RFU IL23R (11748794_a_at) / Fold change /veh IL23R (11748794_a_at) / RFU TNFAIP8L3 (11732012_x_at) / Fold change /veh TNFAIP8L3 (11732012_x_at) / RFU MBOAT4 (11741988_at) / Fold change /veh MBOAT4 (11741988_at) / RFU 11764193_at / Fold change /veh 11764193_at / RFU TMEM53 (11763286_at) / Fold change /veh TMEM53 (11763286_at) / RFU MAGEB2 (11727129_at) / Fold change /veh MAGEB2 (11727129_at) / RFU TMEM200A (11744735_a_at) / Fold change /veh TMEM200A (11744735_a_at) / RFU CCDC152 (11751479_a_at) / Fold change /veh CCDC152 (11751479_a_at) / RFU FAM211A (11726209_a_at) / Fold change /veh FAM211A (11726209_a_at) / RFU RGS16 (11746705_a_at) / Fold change /veh RGS16 (11746705_a_at) / RFU VCAN (11755009_s_at) / Fold change /veh VCAN (11755009_s_at) / RFU RHOB (11743442_s_at) / Fold change /veh RHOB (11743442_s_at) / RFU RGS16 (11720943_a_at) / Fold change /veh RGS16 (11720943_a_at) / RFU RGS16 (11720944_at) / Fold change /veh RGS16 (11720944_at) / RFU, VPS4B / Fold change vs veh, VPS4B / RFU, CREB1 / Fold change vs veh, CREB1 / RFU, DNAJC13 / Fold change vs veh, DNAJC13 / RFU, GNAQ / Fold change vs veh, GNAQ / RFU, CDK5R1 / Fold change vs veh, CDK5R1 / RFU, ZRANB3 / Fold change vs veh, ZRANB3 / RFU, CUL4A / Fold change vs veh, CUL4A / RFU, CCNY / Fold change vs veh, CCNY / RFU, UFL1 / Fold change vs veh, UFL1 / RFU, COG3 / Fold change vs veh, COG3 / RFU, DIAPH2 / Fold change vs veh, DIAPH2 / RFU, SKA2 / Fold change vs veh, SKA2 / RFU, AFF3 / Fold change vs veh, AFF3 / RFU, LMF1 / Fold change vs veh, LMF1 / RFU, IPO11 / Fold change vs veh, IPO11 / RFU, DFFB / Fold change vs veh, DFFB / RFU, FOXP1 / Fold change vs veh, FOXP1 / RFU, CARD8 / Fold change vs veh, CARD8 / RFU, STRN3 / Fold change vs veh, STRN3 / RFU, ADK / Fold change vs veh, ADK / RFU, RASSF2 / Fold change vs veh, RASSF2 / RFU, WIPF1 / Fold change vs veh, WIPF1 / RFU, LARP1B / Fold change vs veh, LARP1B / RFU, RASA1 / Fold change vs veh, RASA1 / RFU, RB1 / Fold change vs veh, RB1 / RFU, PPFIA1 / Fold change vs veh, PPFIA1 / RFU, MAT2A / Fold change vs veh, MAT2A / RFU, CCT5 / Fold change vs veh, CCT5 / RFU, WDR92 / Fold change vs veh, WDR92 / RFU, CUX1 / Fold change vs veh, CUX1 / RFU, TTC7A / Fold change vs veh, TTC7A / RFU, TMEM135 / Fold change vs veh, TMEM135 / RFU, DEPTOR / Fold change vs veh, DEPTOR / RFU, CPM / Fold change vs veh, CPM / RFU, DNAJB6 / Fold change vs veh, DNAJB6 / RFU, CACNA2D3 / Fold change vs veh, CACNA2D3 / RFU, DTX4 / Fold change vs veh, DTX4 / RFU, TFCP2 / Fold change vs veh, TFCP2 / RFU, GMCL1 /// GMCL1P1 / Fold change vs veh, GMCL1 /// GMCL1P1 / RFU, AEBP2 / Fold change vs veh, AEBP2 / RFU, SNHG1 /// SNORD22 /// SNORD25 /// SNORD26 /// SNORD27 /// SNORD28 /// SNORD29 /// SNORD31 / Fold change vs veh, SNHG1 /// SNORD22 /// SNORD25 /// SNORD26 /// SNORD27 /// SNORD28 /// SNORD29 /// SNORD31 / Fold change (Aza/veh), C12orf56 (ProbeSet 11735607_a_at) / Fold change (ACY-1035/veh), C12orf56 (ProbeSet 11735607_a_at) / Fold change (Aza/veh), FGFR1OP (ProbeSet 11751329_s_at) / Fold change (ACY-1035/veh), FGFR1OP (ProbeSet 11751329_s_at) / Fold change (Aza/veh), VPS36 (ProbeSet 11739960_a_at) / Fold change (ACY-1035/veh), VPS36 (ProbeSet 11739960_a_at) / RFU SYPL1 (11715823_x_at) / Fold change /veh SYPL1 (11715823_x_at) / RFU IGFBP7 (11715501_s_at) / Fold change /veh IGFBP7 (11715501_s_at) / RFU REEP3 (11722064_at) / Fold change /veh REEP3 (11722064_at) / RFU IGLL1 (11728026_x_at) / Fold change /veh IGLL1 (11728026_x_at): dose or concentration left out as unconfirmed
Conditions: MV-4-11 cells, 48 hours

Nc1ncn([C@@H]2O[C@H](CO)[C@@H](O)[C@H]2O)c(=O)n1 [azacitidine]
Fold change /veh CAMK2N1 (11719241_x_at): 0.94
